Measurements from patent US20020132813A1, “Heterocyclylalkylazole derivatives and their use as pesticides” (priority 2000, published 2002).

Experiments:
[1] = test system: black bean aphids (Aphis fabae); assay: Black bean aphid test: plants and aphids immersed in solution of the formulated preparation; assay type: in vivo; conditions: read-out: mortality of the aphids
Protocol: Pregerminated field bean seeds (Vicia faba) with seminal roots were transferred into amber glass bottles filled with tap water and then populated with approximately 100 black bean aphids (Aphis fabae). The plants and aphids were then immersed for 5 seconds in an aqueous solution of the formulated preparation to be tested. After the solution had been allowed to run off, the plants and animals were stored in a controlled-environment cabinet (16 hours light/day, 25° C., 40-60% atmospheric humidity). After storage for 3 and 6 days, the effect of the preparation on the aphids was determined.

[2] = test system: black bean aphids (Aphis fabae); assay: Black bean aphid root-systemic test: solution pipetted into the bottle holding the field bean roots; assay type: in vivo; conditions: read-out: mortality of the aphids owing to the root-systemic activity
Protocol: Pregerminated field bean seeds (Vicia faba) with seminal roots were transferred into amber glass bottles filled with tap water. Four milliliters of an aqueous solution of the formulated preparation to be tested were pipetted into the amber glass bottle. Then, the field bean was infested with approx. 100 black bean aphids (Aphis fabae). The plant and animals were then stored in a controlled-environment cabinet (16 hours light/day, 25° C., 40-60% atmospheric humidity). After storage for 3 and 6 days, the root-systemic action of the preparation on the aphids was determined. At a concentration of 300 ppm (based on active substance content), the preparations of Examples No. 1, 8, 20, 28, 30, 34, 36, 40, 52, 54, 56, 58, 118, 138, 146, 148, 154, 158, 176, 184, 368, 369, 370 caused 90-100% mortality of the aphids owing to the root-systemic activity.

FC(F)(F)c1ccncc1-c1nc(CC2OCCCO2)no1 [Example 8, 3-(1,3-Dioxan-2-ylmethyl)-5-(4-trifluoromethyl-3-pyridyl)-1,2,4-oxadiazole] was tested, and the mortality at 300 ppm [1] was 90 to 100% and the mortality at 300 ppm [2] was 90 to 100%.
